From patent US20260021114A1, “COMPOSITION FOR LOWERING BLOOD LIPIDS AND CHOLESTEROL, PREPARATION METHOD THEREFOR, AND APPLICATION THEREOF” (Health and Happiness (H&H) Hong Kong Limited, priority 2022, published 2026)
Marks after values point to notes of the source that are not given here.

Experiments:
[1] = tested on: zebrafish hyperlipidemia model; assay: Efficacy evaluation of lowering triglyceride (Oil Red O staining of tail blood vessels); type: in vivo
Description: 5 dpf melanin allele mutant translucent Albino strain zebrafish were randomly selected and put in beakers, with 30 fish per beaker. The atorvastatin calcium and samples (see Table 3 for final concentration) were administered by dissolving in water respectively, and the normal control group and the model control group were set at the same time, and the volume of each beaker was 25 mL. Except for the normal control group, all other experimental groups were given high-fat feed in water (the high-fat feed was glucose with a final concentration of 3wt % and egg yolk powder with a final concentration of 1.5 mg/mL) to establish a zebrafish hyperlipidemia model. The samples were co-processed with high-fat feed for 15 hours (co-processed for 7.5 hours per day and kept in fish farming water at 28° C. for the rest of the day). After treatment at 28° C. for 48 hours, Oil Red O was given for whole-body fat staining. After the staining, 10 zebrafish from each experimental group were randomly selected and photographed under a dissection microscope. […] The staining intensity of the zebrafish tail blood vessels was analyzed, and the efficacy of atorvastatin calcium and sample in lowering triglycerides was evaluated based on the statistical analysis results of this indicator. Statistical processing results are expressed as mean +SE. […]

[2] = tested on: zebrafish hyperlipidemia model; assay: Efficacy evaluation of lowering cholesterol (cholesterol fluorescent probe, tail blood vessels); type: in vivo
Description: 5 dpf melanin allele mutant translucent Albino strain zebrafish were randomly selected and put in beakers, with 30 fish per beaker. The atorvastatin calcium and samples (see Table 4 for final concentration) were administered by dissolving in water respectively, and the normal control group and the model control group were set at the same time, and the volume of each beaker was 25 mL. Except for the normal control group, all other experimental groups were given high-fat feed in water (the high-fat feed was glucose with a final concentration of 3wt % and egg yolk powder with a final concentration of 1.5 mg/mL) to establish a zebrafish hyperlipidemia model. The samples were co-processed with high-fat feed for 15 hours (co-processed for 7.5 hours per day and kept in fish farming water at 28° C. for the rest of the day). After treatment at 28° C. for 32 hours, cholesterol fluorescent probe (final concentration 1 mg/mL) was administered. After continuing the treatment for 16 hours, 10 zebrafish from each experimental group were randomly selected and photographed under a fluorescence microscope. […] The cholesterol fluorescence intensity of the zebrafish tail blood vessels was analyzed, and the efficacy lowering cholesterol of the samples was evaluated by the statistical analysis results of this index. Statistical processing results are expressed as mean±SE. […]

[3] = tested on: hmgcra gene; assay: Effect on the hmgcra gene expression levels (q-PCR); type: in vivo, zebrafish
Description: 5 dpf melanin allele mutant translucent Albino strain zebrafish were randomly selected and put in beakers, with 30 fish per beaker. The atorvastatin calcium and samples (see Table 7 for final concentration) were administered by dissolving in water respectively, and the normal control group and the model control group were set at the same time, and the volume of each beaker was 25 mL. Except for the normal control group, all other experimental groups were given high-fat feed in water (the high-fat feed was glucose with a final concentration of 3 wt % and egg yolk powder with a final concentration of 1.5 mg/mL) to establish a zebrafish hyperlipidemia model. The samples were co-processed with high-fat feed for 15 hours (co-processed for 7.5 hours per day). After treatment at 28° C. for 48 hours, total RNA of 2.00 μg zebrafish sample was taken, and 20.0 μL cDNA was synthesized according to the instructions of the cDNA first chain synthesis kit. The expression of β-actin and hmgcra genes was detected by q-PCR (see Table 6 for the sequence of primers). The RNA phase of hmgcra gene was calculated using […] as the internal reference of gene expression. Statistical processing results are expressed as mean +SE. Statistical analysis was performed with SPSS26.0 software, p<0.05 indicated a statistically significant difference.

[4] = tested on: model zebrafish; assay: MTC determination in zebrafish hyperlipidemia model; type: in vivo
Description: 5 dpf melanin allele mutant translucent Albino strain zebrafish were randomly selected and put in beakers, with 30 fish per beaker (experimental group). The atorvastatin calcium and samples (see Table 2 for final concentration) were administered by dissolving in water respectively, and the normal control group and the model control group were set at the same time, and the volume of each beaker was 25 mL. Except for the normal control group, all other experimental groups were given high-fat feed in water (the high-fat feed was glucose with a final concentration of 3 wt % and egg yolk powder with a final concentration of 1.5 mg/mL) to establish a zebrafish hyperlipidemia model. The samples were co-processed with high-fat feed for 15 hours (co-processed for 7.5 hours per day and kept in fish farming water at 28° C. for the rest of the day). During sample processing, the number of dead zebrafish in each experimental group was counted every day and removed in time. After treatment at 28° C. for 48 hours, the minimum toxic concentration (MTC) of atorvastatin calcium and samples to model zebrafish was determined.

CC(C)c1c(C(=O)Nc2ccccc2)c(-c2ccccc2)c(-c2ccc(F)cc2)n1CC[C@@H](O)C[C@@H](O)CC(=O)[O-].CC(C)c1c(C(=O)Nc2ccccc2)c(-c2ccccc2)c(-c2ccc(F)cc2)n1CC[C@@H](O)C[C@@H](O)CC(=O)[O-].[Ca+2] [Atorvastatin calcium]
Triglyceride content (Unit in pixels, mean ± SE) ([1]; 11.6 μg/mL, 48 hours, tail blood vessels staining intensity): 11104 ± 588***^c pixels
lowering of triglycerides compared with the model control group (in words) ([1]; P<0.05 vs model control group): significantly lower triglycerides
Cholesterol content (Unit in pixels, mean ± SE) ([2]; 11.6 μg/mL, 48 hours, tail blood vessels cholesterol fluorescence intensity): 122765 ± 11371 pixels
lowering of cholesterol compared with the model control group (in words) ([2]; P<0.05 vs model control group): significantly lower cholesterol
Relative expression of hmgcra gene (mean ± SE) ([3]; 11.6 μg/mL, 48 hours, β-actin internal reference, model control = 1): 0.542 ± 0.003***^a
reduction of hmgcra gene expression levels compared with the model control group (in words) ([3]; P<0.05 vs model control group): significantly reduce the hmgcra gene expression levels
Death rates (%) ([4]; 11.6 μg/mL, n = 30, 48 hours): 0%
Number of deaths (fish) ([4]; 11.6 μg/mL, n = 30, 48 hours): 0 fish
MTC ([4]; model zebrafish, high-fat feed, 28° C. for 48 hours): 11.6 µg/mL
